Drawing on patent publication US11034725B2, “Compositions and methods for treating cardiovascular disease” (Genentech, Inc., priority 2016, dated 2021), this text covers IC50 for eight compounds.

For one assay, the target named is PCSK9 (Homo sapiens, UniProt Q8NBP7). As to the kind of experiment: PCSK9/EGF(A) TR-FRET binding assay. The conditions noted are these: Table 8E, additional compounds.
The next assay concerns the target T1, PCSK9Δhelix (Homo sapiens, UniProt Q8NBP7).
T1 construct: Human PCSK9 construct M1-Q692 with an engineered TEV site (residue deletion Y166, R167); made in house; host or cells: CHO
Nature of the assay: PCSK9Δhelix/Ab20 TR-FRET binding assay. The conditions noted are these: Table 8E, additional compounds.

Setting [1] is: TR-FRET, read-out: PCSK9/EGF(A) IC50.
Setting [2] is: TR-FRET, read-out: PCSK9Δhelix/Ab20 IC50.

Where two headings read alike, the source gives them in different places. Peptide text beside a SMILES is read from it. * marks the point of attachment. Benzoyl(4-Ph) = O=C(c1ccc(-c2ccccc2)cc1)*; Pentanoyl(5-Ph) = O=C(CCCCc1ccccc1)*; X16 = O=C(c1cc(-c2ccncc2)[nH]n1)*; X39 = O=C(C1CCC(c2ccccc2)CC1)*; X22 = O=C(C1CC(Cc2ccccc2)C1)*; X6 = O=C(Cn1ccc(=O)[nH]c1=O)*; X40 = CC(CC(=O)*)CC(C)(C)C; X2 = CC(C)(C)CCCC(=O)* A value given as a limit tells only on which side of the number the result lay.

T1 sequence (Q8NBP7 with tags, fused parts or gaps limits assumed): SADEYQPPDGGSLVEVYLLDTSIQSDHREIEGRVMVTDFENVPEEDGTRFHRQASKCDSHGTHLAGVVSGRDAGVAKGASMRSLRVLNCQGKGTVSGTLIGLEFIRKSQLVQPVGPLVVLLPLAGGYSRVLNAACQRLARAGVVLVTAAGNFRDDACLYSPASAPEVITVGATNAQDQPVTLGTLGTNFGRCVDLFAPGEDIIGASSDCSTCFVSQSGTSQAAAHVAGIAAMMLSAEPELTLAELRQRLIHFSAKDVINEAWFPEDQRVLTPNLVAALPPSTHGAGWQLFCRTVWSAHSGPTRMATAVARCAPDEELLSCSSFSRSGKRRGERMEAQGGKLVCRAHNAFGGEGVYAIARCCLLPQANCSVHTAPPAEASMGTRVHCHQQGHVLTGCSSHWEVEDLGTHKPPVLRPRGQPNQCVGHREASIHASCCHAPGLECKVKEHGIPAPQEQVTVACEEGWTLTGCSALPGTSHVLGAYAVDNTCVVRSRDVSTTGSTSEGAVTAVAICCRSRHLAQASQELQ
T1 sequence (Q8NBP7 31-152 partner limits assumed): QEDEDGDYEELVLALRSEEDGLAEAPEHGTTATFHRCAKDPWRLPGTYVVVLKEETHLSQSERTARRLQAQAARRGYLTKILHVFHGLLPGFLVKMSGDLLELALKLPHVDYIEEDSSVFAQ
Chain of PCSK9 (Q8NBP7 153-692): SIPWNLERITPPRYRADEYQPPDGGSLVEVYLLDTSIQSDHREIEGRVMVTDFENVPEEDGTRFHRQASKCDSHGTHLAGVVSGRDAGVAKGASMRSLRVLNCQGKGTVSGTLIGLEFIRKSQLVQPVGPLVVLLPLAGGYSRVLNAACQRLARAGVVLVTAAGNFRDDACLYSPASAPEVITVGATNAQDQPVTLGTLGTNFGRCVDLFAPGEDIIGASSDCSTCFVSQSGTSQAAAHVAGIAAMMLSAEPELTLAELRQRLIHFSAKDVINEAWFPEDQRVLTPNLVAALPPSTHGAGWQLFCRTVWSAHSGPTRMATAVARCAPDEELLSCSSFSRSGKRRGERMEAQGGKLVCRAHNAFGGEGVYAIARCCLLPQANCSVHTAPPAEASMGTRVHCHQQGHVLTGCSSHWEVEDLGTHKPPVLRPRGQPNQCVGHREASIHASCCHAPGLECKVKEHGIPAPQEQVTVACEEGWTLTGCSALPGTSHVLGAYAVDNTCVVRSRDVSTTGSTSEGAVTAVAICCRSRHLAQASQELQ
Chain of PCSK9 (Q8NBP7 31-152 partner limits assumed): as the sequence (Q8NBP7 31-152 partner limits assumed) above

Consider `CC[C@H](C)[C@H](NC(=O)[C@H](CCCNC(=N)N)NC(=O)[C@@H](NC(=O)[C@H](CC(C)C)NC(=O)[C@H](CC(N)=O)NC(=O)[C@H](Cc1c[nH]c2ccccc12)NC(=O)Cn1ccc(=O)[nH]c1=O)C(C)C)C(=O)NCC(=O)N[C@@H](CC(C)C)C(=O)N[C@@H](CC(C)C)C(=O)N[C@@H](CCCNC(=N)N)C(N)=O` [Compound 143] (X6-WNLVRIGLLR-NH2), for which the IC50 on PCSK9 (setting [1]) was no less than 50 µM; at PCSK9Δhelix (setting [2]) it was 23 µM.

Consider `CC[C@H](C)[C@H](NC(=O)[C@H](CCCNC(=N)N)NC(=O)[C@@H](NC(=O)[C@H](CC(C)C)NC(=O)[C@H](CC(N)=O)NC(=O)[C@H](Cc1c[nH]c2ccccc12)NC(=O)C1CC(Cc2ccccc2)C1)C(C)C)C(=O)NCC(=O)N[C@@H](CC(C)C)C(=O)N[C@@H](CC(C)C)C(=O)N[C@@H](CCCNC(=N)N)C(N)=O` (stereo partly shown) [Compound 144] (X22-WNLVRIGLLR-NH2), for which the IC50 was found to be 9.7 µM on PCSK9 (setting [1]) and 4 µM at PCSK9Δhelix (setting [2]).

With `CC[C@H](C)[C@H](NC(=O)[C@H](CCCNC(=N)N)NC(=O)[C@@H](NC(=O)[C@H](CC(C)C)NC(=O)[C@H](CC(N)=O)NC(=O)[C@H](Cc1c[nH]c2ccccc12)NC(=O)c1ccc(-c2ccccc2)cc1)C(C)C)C(=O)NCC(=O)N[C@@H](CC(C)C)C(=O)N[C@@H](CC(C)C)C(=O)N[C@@H](CCCNC(=N)N)C(N)=O` [Compound 145] ({Benzoyl(4-Ph)}-WNLVRIGLLR-NH2), the IC50 at PCSK9 (PCSK9/EGF(A) IC50, TR-FRET) was 7.3 µM; on PCSK9Δhelix (PCSK9Δhelix/Ab20 IC50, TR-FRET), 2.2 µM.

Consider `CC[C@H](C)[C@H](NC(=O)[C@H](CCCNC(=N)N)NC(=O)[C@@H](NC(=O)[C@H](CC(C)C)NC(=O)[C@H](CC(N)=O)NC(=O)[C@H](Cc1c[nH]c2ccccc12)NC(=O)CCCCc1ccccc1)C(C)C)C(=O)NCC(=O)N[C@@H](CC(C)C)C(=O)N[C@@H](CC(C)C)C(=O)N[C@@H](CCCNC(=N)N)C(N)=O` [Compound 146] ({Pentanoyl(5-Ph)}-WNLVRIGLLR-NH2), for which the IC50 on PCSK9 (setting [1]) was 11 µM; at PCSK9Δhelix (setting [2]), 1.7 µM.

As to `CC[C@H](C)[C@H](NC(=O)[C@H](CCCNC(=N)N)NC(=O)[C@@H](NC(=O)[C@H](CC(C)C)NC(=O)[C@H](CC(N)=O)NC(=O)[C@H](Cc1c[nH]c2ccccc12)NC(=O)C1CCC(c2ccccc2)CC1)C(C)C)C(=O)NCC(=O)N[C@@H](CC(C)C)C(=O)N[C@@H](CC(C)C)C(=O)N[C@@H](CCCNC(=N)N)C(N)=O` (stereo partly shown) [Compound 147] (X39-WNLVRIGLLR-NH2), the IC50 was determined as 2.6 µM on PCSK9 (setting [1]) and 0.41 µM at PCSK9Δhelix (setting [2]).

For `CC[C@H](C)[C@H](NC(=O)[C@H](CCCNC(=N)N)NC(=O)[C@@H](NC(=O)[C@H](CC(C)C)NC(=O)[C@H](CC(N)=O)NC(=O)[C@H](Cc1c[nH]c2ccccc12)NC(=O)CCCC(C)(C)C)C(C)C)C(=O)NCC(=O)N[C@@H](CC(C)C)C(=O)N[C@@H](CC(C)C)C(=O)N[C@@H](CCCNC(=N)N)C(N)=O` [Compound 148] (X2-WNLVRIGLLR-NH2), the IC50 at PCSK9 (setting [1]) was determined as 19 µM; at PCSK9Δhelix (setting [2]), 11 µM.

Regarding `CC[C@H](C)[C@H](NC(=O)[C@H](CCCNC(=N)N)NC(=O)[C@@H](NC(=O)[C@H](CC(C)C)NC(=O)[C@H](CC(N)=O)NC(=O)[C@H](Cc1c[nH]c2ccccc12)NC(=O)CC(C)CC(C)(C)C)C(C)C)C(=O)NCC(=O)N[C@@H](CC(C)C)C(=O)N[C@@H](CC(C)C)C(=O)N[C@@H](CCCNC(=N)N)C(N)=O` (stereo partly shown) [Compound 149] (X40-WNLVRIGLLR-NH2), the IC50 was determined as 11 µM at PCSK9 (setting [1]) and 8.9 µM on PCSK9Δhelix (setting [2]).

As for `CC[C@H](C)[C@H](NC(=O)[C@H](CCCNC(=N)N)NC(=O)[C@@H](NC(=O)[C@H](CC(C)C)NC(=O)[C@H](CC(N)=O)NC(=O)[C@H](Cc1c[nH]c2ccccc12)NC(=O)c1cc(-c2ccncc2)[nH]n1)C(C)C)C(=O)NCC(=O)N[C@@H](CC(C)C)C(=O)N[C@@H](CC(C)C)C(=O)N[C@@H](CCCNC(=N)N)C(N)=O` [Compound 150] (X16-WNLVRIGLLR-NH2), the IC50 was determined as 22 µM at PCSK9 (setting [1]) and 8.2 µM on PCSK9Δhelix (setting [2]).
